From patent EP2042178A1, “Ocular formulations comprising 5-chlorouracil and use thereof” (INSTITUT NATIONAL DE LA SANTE ET DE LA RECHERCHE MEDICALE …, priority 2007, dated 2009)
≈ marks a conversion by molar mass, not a printed value. Where two headings read alike, the source gives them in different places.

Key:
[1] = tested on: rabbit Tenon's capsule fibroblasts; conditions: for cell death: sub-confluent fibroblasts, 24 hours
Procedure: Cells were seeded at a density of 2 x 10^4 cells / well until reaching subconfluency and were then treated with 5-chlorouracil (5-CU) or with 5-fluorouracil (5-FU) at different concentrations (0, 0.5, 5, 50, 500, 1'000 or 5'000 µg/ml) for 24 hours.
MTT (Sigma) (1mg/ml in PBS) was added to the wells and plates were incubated at 37°C for 1 hour. Isopropanol was then added and mixed thoroughly to dissolve the dark blue crystals and the plates were rapidly read on a BIO-RAD Model 450 Microplate reader, using a test wavelength of 570 nm and a reference wavelength of 630 nm.

rabbit fibroblasts = experiment: Trypan blue exclusion test / cell counting, fibroblast proliferation; conditions: for concentration at which inhibition of cell proliferation is significant: 24 hours exposure; for inhibition at 10 µg/mL / inhibition at 20 µg/mL / inhibition at 100 µg/mL: Oryctolagus cuniculus, Fibroblast, 24 h, read-out: inhibition of cell proliferation
[2] = tested on: human conjunctival cell line (Wong-Kilbourne derivative of Chang conjunctiva); experiment: Neutral red test (cellular viability); format: cell-based; conditions: for cell viability decrease: concentrations up to 10 µg/ml; for IC50: Homo sapiens, 72 hours of exposure
Procedure: (§1) Normal culture development was assessed daily by phase-contrast microscopy. Confluent cultures were removed by gentle trypsin incubation, and cells were counted. For cytotoxicity experiments, cells were seeded into 96-well culture plates (18'000 cells per well; Nunc, Roskild, Denmark) until sub-confluence (culture surface covering nearly 70%) and were then exposed to the different formulations. Experiments were performed by microplate cold light fluorometry (Fluorolite 1000 Dynex; Issy-les-Moulineaux, France), as previously validated (Debbasch et al., 2001, Invest. Ophthalmol. Vis. Sci., 42, 642-652). According to the recommendations of the European Center for the Validation of Alternative Methods (ECVAM) and to previously validated methods in the Chang cell line, two cellular markers were evaluated: cellular viability and chromatin condensation. Cellular viability was evaluated with a neutral red (Fluka, Ronkonkoma, NY) test with fluorometric detection (excitation: 535 nm; emission: 600 nm). Hoechst 33342 (Molecular Probes, Eugene, OR) is an intercalating dye, which allows the determination of the total chromatin quantity variations and the degree of chromatin condensation. […] was used on cells at a final concentration of 10 µg/ml (excitation: 360 nm; emission: 450 nm). 0.5 mg/ml propidium iodide (Roche Diagnostics Corp., Meylan, France) was added to the Hoechst solution, to control necrotic cells, as previously validated. The supravital uptake of Hoechst 33342 combined with extrusion of propidium iodide was used as an assay for apoptosis as described in Belloc et al., 1994, Cytometry, 17, 59-65. […] It is defined by a series of cellular changes: (a) the cell shrinks, looses contact with neighbouring cells or surrounding matrix and starts to display intracellular proteins on its surface; (b) the chromatin in the nucleus condenses and the DNA is cleaved into small fragments; (c) the plasma membrane then begins to show a bubbled appearance and small membrane bound bodies break off containing intracellular material which can include nuclear matter and cellular organelles. These fragments are known as "apoptotic bodies" which are quickly removed by phagocytes or by neighbouring cells.
In these experiments, cell viability and chromatin condensation were evaluated after a 24 and 72 hour-incubation, with […] of 5-chlorouracil as compared with the same concentrations of 5-fluorouracil. The value of IC50 (concentration inhibiting 50% of cell population) was used to compare 5-FU and 5-CU cytotoxicities. Dulbecco's minimum essential medium was used as a control, and was used to dilute the tested molecules.

[3] = In vitro rate of release from POE IV formulation; format: physicochemical
Procedure: Formulations were prepared under a laminar airflow hood. […] The viscous mixture was conditioned in a 1.0 ml syringe, each sample being 200µl (240 mg). In a preliminary investigation, the in vitro rate of release of 5-CU was determined according to the procedure described by Merkli et al., 1998, J. Control. […] 5-FU in vitro rate of release from POE IV has also previously been described by Heller et al, 2005, Adv. Drug Delivery Rev., 57(14)2053-62.

[4] = tested on: human conjunctival cell line (Wong-Kilbourne derivative of Chang conjunctiva); experiment: Hoechst 33342 test (chromatin condensation, with propidium iodide); format: cell-based; conditions: for chromatin condensation compared to control cells: up to 1 µg/ml; for chromatin condensation: increasing concentrations >1 µg/ml
Procedure: as §1
The value of IC50 (concentration inhibiting 50% of cell population) was used to compare 5-FU and 5-CU cytotoxicities. Dulbecco's minimum essential medium was used as a control, and was used to dilute the tested molecules.

[5] = sub-conjunctival injection, cited from earlier work
[6] = same conditions, Heller et al., 2005; cited from earlier work
[7] = Hoechst and neutral red results combined, 72 hours of exposure
[8] = Hoechst test, high concentrations

SMILES | concentration at which inhibition of cell proliferation is significant (rabbit fibroblasts) | inhibition at 10 µg/mL (rabbit fibroblasts) | inhibition at 20 µg/mL (rabbit fibroblasts) | inhibition at 100 µg/mL (rabbit fibroblasts) | cell viability decrease ([2]; 24 hour-incubation) | IC50 [2] | chromatin condensation compared to control cells ([4]; 24 hours) | type of cell death induced [4, 7] | type of cell death induced [4, 8] | also measured
O=c1[nH]cc(Cl)c(=O)[nH]1 [5-CU, 5-chloro-1H-pyrimidine-2,4-dione] | ≥ 10 µg/mL | 23% | 23% | 25% | about 20% | 2500 µg/mL (≈ 17.1 mM) | no significant difference | apoptotic cell death | apoptotic cell death | times less toxic to non-proliferating cells than 5-FU ([1]; rabbit, 24 h): 1'000 times; cell death ([1]; 5'000 µg/ml): 33%; cell death ([2]; 24 hour-incubation, 1'000 µg/ml): 35%; cell death ([2]; 72 hour-incubation, 4 mg/ml (highest concentration)): 75%; daily release rate ([3]; 1% 5-CU from POE IV formulation, for up to forty days): approximately 8 µg/day; in vitro rate of release ([3]; from POE IV, 1% wt/wt, over a period of up to 40 days, preliminary investigation): 8 micrograms per day; Hoechst fluorescence compared with identical 5-FU concentrations ([4]; 24 hours, increasing concentrations up to 1'000 µg/ml, P=0.0079): very significant increase
O=c1[nH]cc(F)c(=O)[nH]1 [5-FU, 5-fluorouracil] | ≥ 10 µg/mL | 28% | 40% | 43% | about 20% | 7 µg/mL (≈ 0.0538 mM) | no significant difference | apopto-necrotic cell death | necrotic cell death | cell death ([1]; 5 µg/ml): 39.1%; cell death ([1]; 50 µg/ml): 51%; corneal levels ([5]; at 1 hour): 20 µg/g; corneal levels ([5]; at 24 hours): 5 µg/g; time for which ID50 levels are maintained ([5]; at the injection site and 180° from it): up to 24 hours; cell death ([2]; 24 hour-incubation, 100 µg/ml): 55%; cellular viability ([2]; 72 hour-incubation, 1 µg/ml): significantly decreased; chromatin condensation ([4]; 24 hours, P=0.0079): dose-dependant significant decrease; chromatin condensation ([4]; 72 hours, P=0.02): dose-dependant significant decrease; in vitro rate of release from POE IV [6]: 100 µg per day
